This is an account of results in ChEMBL document CHEMBL1201862, “PubChem BioAssay data set” (2004).

Active and inactive are the calls of the source.

As a reminder, the AC50 is the midpoint of the concentration-response curve, whichever way the signal moves. The term IC50 denotes the midpoint of a concentration-inhibition curve.

Some targets named below: Cytochrome P450 2C9 (Homo sapiens, UniProt P11712); Cytochrome P450 3A4 (Homo sapiens, UniProt P08684); Cytochrome P450 2D6 (Homo sapiens, UniProt P10635).
Data set [1] has as its target T1, Short transient receptor potential channel 4 (Mus musculus, UniProt Q9QUQ5).
T1 sequence (Q9QUQ5 whole entry): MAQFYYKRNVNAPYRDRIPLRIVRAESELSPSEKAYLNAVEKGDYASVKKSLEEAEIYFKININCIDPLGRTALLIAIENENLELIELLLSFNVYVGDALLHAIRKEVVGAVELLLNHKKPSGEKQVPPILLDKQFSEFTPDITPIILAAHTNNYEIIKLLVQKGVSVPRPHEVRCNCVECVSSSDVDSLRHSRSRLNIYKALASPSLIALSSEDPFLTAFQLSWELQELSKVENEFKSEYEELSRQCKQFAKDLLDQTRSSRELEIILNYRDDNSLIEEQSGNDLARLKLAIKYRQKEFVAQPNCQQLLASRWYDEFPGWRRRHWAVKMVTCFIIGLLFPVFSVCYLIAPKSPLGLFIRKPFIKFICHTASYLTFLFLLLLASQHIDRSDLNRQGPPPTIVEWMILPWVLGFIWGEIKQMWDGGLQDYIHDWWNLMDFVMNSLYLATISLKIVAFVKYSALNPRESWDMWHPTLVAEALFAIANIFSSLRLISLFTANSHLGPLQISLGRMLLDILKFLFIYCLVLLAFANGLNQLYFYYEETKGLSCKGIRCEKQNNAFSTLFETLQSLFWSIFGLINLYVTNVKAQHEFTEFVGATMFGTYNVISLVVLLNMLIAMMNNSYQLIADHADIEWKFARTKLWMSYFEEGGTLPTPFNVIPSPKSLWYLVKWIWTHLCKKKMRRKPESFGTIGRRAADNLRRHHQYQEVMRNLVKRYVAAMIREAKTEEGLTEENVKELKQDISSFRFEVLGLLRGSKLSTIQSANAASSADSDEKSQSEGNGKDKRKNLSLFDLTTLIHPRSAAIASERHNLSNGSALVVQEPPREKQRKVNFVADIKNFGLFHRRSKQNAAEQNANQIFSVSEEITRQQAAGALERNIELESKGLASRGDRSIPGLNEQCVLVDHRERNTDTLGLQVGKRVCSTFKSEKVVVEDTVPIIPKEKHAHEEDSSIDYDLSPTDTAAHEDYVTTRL
The data set can be described thus: mouse TRPC4 channel activators, dose response, cell-based, HEK293 TRPC4/mu-opioid, Fluo-4 calcium (AID 434937). The data set is classed as functional.

Data set [2] is described as follows: ZM109 Env clade C HIV-1 fusion inhibitors, dose response, HeLa effector, CEM target cells, luciferase, cherry-pick (AID 652058). Format: functional, cell-based.
Data set [3] can be described thus: off-target signal loss in HeLa-CEM21 co-culture – HeLa F-luc CTL cells, cherry-picked, counter-screen for HIV-1 Env fusion inhibitor project, dose response (AID 652040).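 Further: potency for signal decrease marking cytotoxic or nonspecific inhibition.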 The data set is classed as functional, cell-based.
A short description of data set [4]: inhibitors of HIV Env-driven cell fusion, dose response, cherry-pick (AID 652057). Format: functional, cell-based.
Data set [5] in a line: inhibitors of clade B AD8 Env fusion, dose response, cell-based, cherry-pick (AID 652062).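 Further: luciferase signal from cell-cell fusion driven by HIV-1 clade B AD8 Env; potency is for inhibitors of fusion seen as a drop in luminescence.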 Format: functional.
Data set [6] is described as follows: intracellular Trypanosoma cruzi inhibitors in host cells – cell-based, plate reader, cherry-pick samples, set 3, dose response (AID 651818).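 Further: compounds incubated with infected cells for about four days.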 The data set is classed as functional.
A further data set can be described thus: cells. Format: functional, cell-based.
The target of data set [7] is T2, Nuclear receptor subfamily 0 group B member 1 (Homo sapiens, UniProt P51843).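 Further: HEK293T cells transfected with SF-1 and DAX-1 plus StAR promoter luciferase reporter.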
T2 sequence (P51843 whole entry): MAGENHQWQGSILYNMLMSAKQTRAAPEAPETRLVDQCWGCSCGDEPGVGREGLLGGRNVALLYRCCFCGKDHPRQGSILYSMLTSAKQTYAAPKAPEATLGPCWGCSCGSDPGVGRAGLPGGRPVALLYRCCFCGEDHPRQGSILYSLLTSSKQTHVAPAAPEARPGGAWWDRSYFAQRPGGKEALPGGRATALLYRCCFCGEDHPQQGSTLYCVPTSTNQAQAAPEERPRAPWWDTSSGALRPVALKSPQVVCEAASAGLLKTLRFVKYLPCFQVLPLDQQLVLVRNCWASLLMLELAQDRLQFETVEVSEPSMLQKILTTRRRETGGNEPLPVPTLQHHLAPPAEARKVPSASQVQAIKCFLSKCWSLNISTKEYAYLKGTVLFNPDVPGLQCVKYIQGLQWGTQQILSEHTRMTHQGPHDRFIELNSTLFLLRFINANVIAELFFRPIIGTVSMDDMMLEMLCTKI
Format: functional, cell-based.

Another data set deals with HEK293. Nature of the data set: inhibitors of LMP1-driven NF-kB reporter, dose response, cell-based, HEK293, luciferase, cherry-pick (AID 588343). The following applies: Homo sapiens. The data set is classed as functional.
The next data set addresses T3, Cytochrome P450 1A2 (Homo sapiens, UniProt P05177).
T3 sequence (P05177 whole entry): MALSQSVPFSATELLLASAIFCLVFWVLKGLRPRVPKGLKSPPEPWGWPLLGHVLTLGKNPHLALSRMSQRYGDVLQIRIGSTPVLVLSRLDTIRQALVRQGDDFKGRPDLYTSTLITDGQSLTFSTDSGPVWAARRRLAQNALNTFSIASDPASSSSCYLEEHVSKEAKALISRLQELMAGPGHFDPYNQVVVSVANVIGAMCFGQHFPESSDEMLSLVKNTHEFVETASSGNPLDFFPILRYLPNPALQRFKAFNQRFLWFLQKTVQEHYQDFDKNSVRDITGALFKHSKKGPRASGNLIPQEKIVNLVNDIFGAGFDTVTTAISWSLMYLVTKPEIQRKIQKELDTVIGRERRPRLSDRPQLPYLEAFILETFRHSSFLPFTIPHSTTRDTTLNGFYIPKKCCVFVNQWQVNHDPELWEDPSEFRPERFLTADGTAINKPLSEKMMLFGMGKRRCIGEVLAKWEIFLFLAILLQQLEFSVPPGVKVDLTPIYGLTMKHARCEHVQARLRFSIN

In the next data set the target is Cytochrome P450 2C19 (Homo sapiens, UniProt P33261). Nature of the data set: Cytochrome panel assay with activity outcomes. Panel member name: p450-cyp2c19 Compounds with AC50 equal or less than 10 uM are considered active. The data set is classed as functional. Conditions: read-out: AC50.
Data set [8] has as its target T4, Corticotropin-releasing factor receptor 2/Corticotropin-releasing factor-binding protein (Homo sapiens, UniProt P24387+Q13324).
T4 sequence (Q13324 whole entry): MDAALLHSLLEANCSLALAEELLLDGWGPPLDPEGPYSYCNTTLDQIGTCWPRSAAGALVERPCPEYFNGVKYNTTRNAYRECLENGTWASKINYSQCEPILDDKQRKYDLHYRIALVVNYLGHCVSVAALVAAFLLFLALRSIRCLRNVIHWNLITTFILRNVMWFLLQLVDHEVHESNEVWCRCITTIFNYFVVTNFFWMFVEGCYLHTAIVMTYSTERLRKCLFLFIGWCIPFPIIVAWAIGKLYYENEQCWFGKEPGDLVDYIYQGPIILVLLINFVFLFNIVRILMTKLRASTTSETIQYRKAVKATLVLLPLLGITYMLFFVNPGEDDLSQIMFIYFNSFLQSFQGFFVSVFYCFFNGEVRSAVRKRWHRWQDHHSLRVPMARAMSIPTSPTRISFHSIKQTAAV
T4 sequence (P24387 whole entry): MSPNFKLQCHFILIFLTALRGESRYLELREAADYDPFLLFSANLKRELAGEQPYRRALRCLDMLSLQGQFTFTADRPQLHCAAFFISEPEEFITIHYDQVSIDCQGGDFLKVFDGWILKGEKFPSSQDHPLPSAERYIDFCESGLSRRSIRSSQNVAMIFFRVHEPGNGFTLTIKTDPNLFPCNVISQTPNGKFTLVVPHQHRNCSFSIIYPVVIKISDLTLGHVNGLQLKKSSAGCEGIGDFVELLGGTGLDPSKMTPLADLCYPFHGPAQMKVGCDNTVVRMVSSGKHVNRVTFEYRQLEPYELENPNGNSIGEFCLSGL
The data set can be described thus: activators of CRF receptor 2 with binding protein – uHTS hits, confirmation (AID 602473). Format: functional. Conditions: read-out: EC50_Mean.

Data set [9] in a line: A549 cell cytotoxicity, dose response, cytotoxicity control, plate reader, cherry-pick, antagonist series (AID 743412). Format: functional, cell-based.
Data set [10] can be described thus: HepG2 cell cytotoxicity, dose response, cytotoxicity control, plate reader, cherry-pick, antagonist series (AID 743416). Format: functional, cell-based.
Data set [11] can be described thus: LGR2 antagonists, dose response, cell-based, HEK293, CRE-luciferase reporter, cherry pick, set 2 (AID 743343).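 Further: transfected cells were stimulated with diluted bursicon conditioned medium after compound addition.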 Format: functional.
Data set [12] in a line: MC4R antagonists, dose response, counter-screen for LGR2 antagonist project, cell-based, plate reader, cherry pick (AID 743444).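 Further: transfected HEK 293 cells stimulated with alpha-MSH peptide; potency of inhibitors of the alpha-MSH evoked signal.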 The data set is classed as functional. (A counterscreen serves to expose hits that act by an unwanted route or on another target.)

Chain of Cytochrome P450 2C9 (P11712 whole entry): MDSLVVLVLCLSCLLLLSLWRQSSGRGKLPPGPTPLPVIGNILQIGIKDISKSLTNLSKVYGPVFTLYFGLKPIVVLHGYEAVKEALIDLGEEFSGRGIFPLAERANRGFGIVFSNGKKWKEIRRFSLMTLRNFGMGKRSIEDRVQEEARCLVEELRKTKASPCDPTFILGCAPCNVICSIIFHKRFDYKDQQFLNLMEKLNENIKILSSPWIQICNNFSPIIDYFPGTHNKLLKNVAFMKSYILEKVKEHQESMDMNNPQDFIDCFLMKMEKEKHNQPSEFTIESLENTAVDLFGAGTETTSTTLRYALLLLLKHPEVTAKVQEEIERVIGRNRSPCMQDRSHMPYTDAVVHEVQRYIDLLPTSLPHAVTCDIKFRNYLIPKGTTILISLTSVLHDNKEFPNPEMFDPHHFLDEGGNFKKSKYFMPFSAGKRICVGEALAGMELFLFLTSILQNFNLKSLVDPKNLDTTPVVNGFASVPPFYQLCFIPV
Chain of Cytochrome P450 2D6 (P10635 whole entry): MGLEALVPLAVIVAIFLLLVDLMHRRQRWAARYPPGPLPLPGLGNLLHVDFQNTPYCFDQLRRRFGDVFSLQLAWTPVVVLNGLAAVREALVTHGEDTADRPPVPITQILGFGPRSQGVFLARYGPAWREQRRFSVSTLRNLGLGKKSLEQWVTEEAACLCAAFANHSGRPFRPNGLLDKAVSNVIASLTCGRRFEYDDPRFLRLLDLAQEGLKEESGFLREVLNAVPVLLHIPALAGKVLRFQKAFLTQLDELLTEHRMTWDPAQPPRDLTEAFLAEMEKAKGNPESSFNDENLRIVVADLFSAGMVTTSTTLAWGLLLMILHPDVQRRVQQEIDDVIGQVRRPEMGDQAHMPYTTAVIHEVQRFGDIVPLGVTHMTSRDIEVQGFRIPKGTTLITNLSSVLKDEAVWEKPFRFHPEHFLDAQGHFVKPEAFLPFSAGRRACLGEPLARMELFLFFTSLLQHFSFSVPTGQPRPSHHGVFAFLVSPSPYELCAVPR
Chain of Cytochrome P450 2C19 (P33261 whole entry): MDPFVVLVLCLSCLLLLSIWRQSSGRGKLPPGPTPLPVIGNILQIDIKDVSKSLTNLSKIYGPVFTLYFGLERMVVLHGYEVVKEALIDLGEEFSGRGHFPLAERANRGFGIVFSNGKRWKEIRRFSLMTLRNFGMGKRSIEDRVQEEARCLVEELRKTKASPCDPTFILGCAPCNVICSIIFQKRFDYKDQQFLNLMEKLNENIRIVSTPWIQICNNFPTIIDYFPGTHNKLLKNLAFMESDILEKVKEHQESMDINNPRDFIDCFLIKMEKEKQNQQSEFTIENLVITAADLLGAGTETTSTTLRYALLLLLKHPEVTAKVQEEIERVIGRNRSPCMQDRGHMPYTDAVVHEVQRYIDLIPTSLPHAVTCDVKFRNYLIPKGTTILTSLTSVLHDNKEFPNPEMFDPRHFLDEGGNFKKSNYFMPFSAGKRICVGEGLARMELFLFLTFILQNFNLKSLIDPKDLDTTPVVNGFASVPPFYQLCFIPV
Chain of Cytochrome P450 3A4 (P08684 whole entry): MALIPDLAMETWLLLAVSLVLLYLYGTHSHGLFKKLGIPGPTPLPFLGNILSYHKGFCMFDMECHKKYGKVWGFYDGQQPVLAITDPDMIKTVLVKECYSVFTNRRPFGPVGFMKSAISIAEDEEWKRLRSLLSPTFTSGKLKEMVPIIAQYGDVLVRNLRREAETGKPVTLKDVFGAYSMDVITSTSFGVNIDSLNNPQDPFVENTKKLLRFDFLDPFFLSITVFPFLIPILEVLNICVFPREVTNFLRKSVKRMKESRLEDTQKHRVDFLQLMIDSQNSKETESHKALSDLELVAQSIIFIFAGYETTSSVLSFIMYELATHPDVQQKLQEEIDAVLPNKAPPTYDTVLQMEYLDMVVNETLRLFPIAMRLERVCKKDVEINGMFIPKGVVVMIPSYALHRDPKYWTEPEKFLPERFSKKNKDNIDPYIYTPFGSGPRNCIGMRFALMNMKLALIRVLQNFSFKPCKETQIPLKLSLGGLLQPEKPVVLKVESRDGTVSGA

Turning to `COC(=O)c1ccc(C(S)=NCC2(N(C)C)CCCCC2)cc1`, the EC50 in data set [1] was 5.31 µM (active).
Consider `CS(=O)(=O)N1CCC2(CC1)CN(c1cccc(-c3ccccc3)c1)C2`, for which the AC50 result at Cytochrome P450 2C9 is “inconclusive”.
Consider `O=C(NCc1ccccc1)C1=C[C@@H](C2CCCCC2)C[C@@H](OCc2ccc(CO)cc2)O1`, for which the EC50 in data set [1] was 2.37 µM (active).
Take `Cc1cccc(NC(=O)CCSc2nc(C)cc(C)n2)c1`: the AC50 at Cytochrome P450 3A4 was 12.6 µM (inconclusive); on Cytochrome P450 2D6 it was 22.4 µM (inconclusive); at Cytochrome P450 2C9, “inconclusive”.
Regarding `CCOC(=O)c1c(CSc2cccs2)n(C)c2cc(Br)c(O)c(CN(C)C)c12`, the half-maximal activity concentration (AC50) in data set [2] was 1.23 µM (active); in data set [3], 2.08 µM (active); in [4], 1.62 µM (active); in data set [5], 14.4 µM (active).
With `C[C@@H]1CCCCO[C@H](CN(C)C(=O)Nc2ccc(F)cc2)[C@@H](C)CN([C@H](C)CO)C(=O)c2cc(NC(=O)Nc3ccc(F)cc3)ccc2O1`, in data set [6], the AC50 was 5.89 µM (active).
As to `CCOc1cccc(/C=C/c2ccc3ccccc3n2)c1OC(C)=O`, the IC50 (in “cells”; in data set [7]) was > 67.5 µM (inactive) each time.
Consider `NC(=O)C1CCN(C(=O)c2cc3c(s2)CCCC3)CC1`, for which the IC50 (in “cells”; in data set [7]) was > 67.6 µM (inactive) in each case.
In the case of `C[C@H]1CN([C@@H](C)CO)C(=O)Cc2cc(NC(=O)Nc3ccc(F)cc3)ccc2O[C@@H]1CN(C)Cc1ccc(C(F)(F)F)cc1`, in [6], the AC50 was 4.21 µM (active).
Turning to `C(=N\Nc1ccc2ccccc2n1)/c1ccc2c(c1)OCO2`, the IC50 in “cells” was > 67.6 µM (inactive); in data set [7] it was > 0.278 µM (active). In addition, the concentration at half-maximal activity (AC50) in the data set with HEK293 is 2.42 µM (active).
Regarding `CCN1CCN(c2ccc(S(=O)(=O)N3CCCCC3)cc2NC(=O)CC(C)c2ccccc2)CC1` (configuration not stated), in data set [1], the EC50 is 1.06 µM (active).
Regarding `CC(C)NC(=O)COC(=O)c1cc(O)nc2ccccc12`, the concentration at half-maximal activity (AC50) entry is “inconclusive” at Cytochrome P450 2C9 and 7.08 µM (inconclusive) at Cytochrome P450 1A2.
On to `CCc1cc(C(=O)NN=C(S)NCC2CCCO2)cs1` (configuration not stated), for which the AC50 entry at Cytochrome P450 2C9 is “inconclusive”; at Cytochrome P450 2C19, 7.94 µM (inconclusive); at Cytochrome P450 1A2, 17.8 µM (inconclusive).
With `CCOc1ccccc1N(CC(=O)N1CCOCC1)S(=O)(=O)c1ccc(SC)cc1`, the EC50 is 2.66 µM (active) in [1] and 2.77 µM (active) in data set [8].
With `COc1ccc(C(=O)CN2CCN(c3ccc(F)cc3)CC2)cc1OC`, the AC50 was 25.1 µM (inconclusive) at Cytochrome P450 2D6 and “inconclusive” at Cytochrome P450 2C9.
Consider `Cc1ccc(-c2nc3c(=O)n(C)c4ccccc4c3o2)cc1`, for which the AC50 result was “inconclusive” on Cytochrome P450 2C9 and 8.91 µM (inconclusive) at Cytochrome P450 2C19.
As to `C[C@@H]1CN([C@H](C)CO)C(=O)c2cccc(NS(=O)(=O)c3ccccc3)c2O[C@@H]1CN(C)Cc1ccc(C(=O)Nc2ccccc2N)cc1`, in data set [6], the AC50 is 3.53 µM (active).
In the case of `C[C@@H]1CN([C@@H](C)CO)S(=O)(=O)c2ccc(-c3cccc(F)c3)cc2O[C@@H]1CN(C)S(=O)(=O)c1ccccc1`, the concentration at half-maximal activity (AC50) in data set [2] was 0.965 µM (active); in data set [4], 0.597 µM (active); in data set [5] it was 6.62 µM (active).
For `C[C@@H]1CN([C@@H](C)CO)C(=O)c2cccc(NC(=O)c3nc4ccccc4s3)c2O[C@@H]1CN(C)CC1CCCCC1`, in data set [6], the AC50 is 7.6 µM (active).
As for `C[C@H](CO)N1C[C@H](C)[C@@H](CN(C)Cc2ccc(Oc3ccccc3)cc2)Oc2c(NC(=O)c3ccc(-c4nccs4)cc3)cccc2C1=O`, the concentration at half-maximal activity (AC50) in data set [6] was 3.08 µM (active).
In the case of `COc1ccc(CNCc2cn(-c3cccc(F)c3)nc2-c2ccc(C)o2)cc1`, the EC50 in data set [1] was 5.96 µM (active).
As to `COc1ccc2oc(C(=O)NCCc3ccccc3)c(C)c2c1`, the concentration at half-maximal activity (AC50) was 8.39 µM (active) in [9]; 12.7 µM (active) in data set [10]; 5.62 µM (active) in [11]; 8.65 µM (active) in data set [12]; 2.48 µM (active) in the data set on HEK293. Further, the IC50 (in “cells”; in data set [7]) was > 67.5 µM (inactive) in each case.
Consider `C[C@@H]1CN([C@H](C)CO)C(=O)c2cccc(NC(=O)NC3CCCCC3)c2O[C@H]1CN(C)CC1CCCCC1`, for which the AC50 in [6] is 2.5 µM (active).
For `CCCc1c(O)nc(SCCN(CCC)CCC)nc1O`, in [1], the EC50 was 2.66 µM (active).
